Experimental data as given in patent publication US20230357162A1, “COMPOUNDS, COMPOSITIONS AND METHODS” (Denali Therapeutics Inc., priority 2020, published 2023).
Counter-ions that a name gives are not always drawn.

System: IL-1β secretion, THP-1 cells
Experiment: IL-1β secretion assay in PMA-differentiated THP-1 cells stimulated with LPS and nigericin (ELISA readout)
Format: cell-based
Settings: 25 ng/mL LPS then nigericin
Procedure: Compounds as provided herein were tested in the following assay. Cell culture medium employed contained RPMI 1640 medium (89%), FBS (10%), Pen/Strep (1%), and 2-mercaptoethanol (0.05 mM). Freezing medium was made up of 90% FBS and 10% DMSO. THP-1 cells were removed from the liquid nitrogen and placed into a 37° C. water bath to thaw, until signs of ice dissipated. The cells were then added to 9 mL of warm cell culture medium and centrifuged for 5 minutes at 1000 rpm. The supernatant was discarded, and the cells were resuspended in new cell culture medium. THP-1 cells were then split and cultured in the cell culture medium, being passaged every 2-3 days with the cell density will be maintained between 5×10^5 and 1.5×10^6 viable cells/mL.
PMA was dissolved in DMSO to make a stock solution at 5 mg/ml and stored in 10 µl aliquots at -20° C. for single use. PMA is added to normal growth medium. LPS was diluted with 1 mL of water solution to provide a 1 mg/mL stock solution and stored in 15 µl aliquots at -20° C. for single use. Nigericin is diluted in ice cold 100% ethanol to 5 mg/ml (6.7 mM) and stored in 75 µL aliquots at -20° C. for single use. Serum-free media contains RPMI 1640 medium (99%), Pen/Strep (1%), and 2-mercaptoethanol (0.05 mM). The two control conditions used to qualify and normalize test compound dose-response curves were as follows: High Control = 25 ng/mL LPS, 5 µM Nigericin, 0.5% DMSO, Low Control = 25 ng/mL, LPS, 0.5% DMSO.
THP-1 cells were diluted to provide a suspension at a concentration of 1.0×10^6 cells/mL with the total volume of suspension required to enable the desired number of assay plates. The growth media was supplemented with PMA (5 ng/mL final concentration) and the cells were incubated at 37° C. under a humidified atmosphere of 5% CO2 for 40 h.
All media was carefully aspirated from each culture flask. The cells were washed carefully with 1x DPBS. The cells were then briefly digested with trypsin LE for 5 minutes at 23° C. and immediately resuspended in cell growth media. After resuspension, the cells were centrifuged at 1000 rpm for 3 minutes and the supernatant was discarded. The cells were resuspended in DPBS and once again centrifuged at 1000 rpm for 5 minutes. The supernatant was discarded and the cell pellet was resuspended in serum-free media supplemented with LPS (25 ng/mL final concentration) to enable the distribution of 30 K THP-1 cells within 45 µL of media into each well of 384-well PDL-coated plates. The 384-well plates were then incubated at 37° C. under a humidified atmosphere of 5% CO2 for 2 h. Following this period, test compounds were dispensed by Tecan across the desired concentration range with all wells normalized to a final 0.5 % DMSO concentration. The plates were then then incubated at 37° C. under a humidified atmosphere of 5% CO2 for 1 h. Following this period, 5 µL of the […] nigericin stock solution was added to each of the appropriate wells and plates were centrifuged at 1000 rpm for 30 seconds. The plates were the immediately reintroduced to the incubator at 37° C. under a humidified atmosphere of 5% CO2 for 2 h. After this time, 35 µL/well of supernatant was collected and transferred into v-bottom plate and centrifuged at 1000 rpm for 1 minute. These supernatant aliquots were analyzed using an IL-Iβ detection kit as described below. If needed, the test samples could be snap frozen and stored at -80° C. until analyzed.
To prepare each ELISA plate, capture antibody (mAb Mt175) was diluted with PBS to a final concentration of 2 µg/mL and then 20 µL of this solution was added to each well of the ELISA plate. Each plate was allowed to incubate overnight at 4° C. The next day, the capture antibody solution was removed and discarded. Each ELISA plate was washed 4 times with PBST followed by the addition of 25 µL/well of blocking buffer (Licor-927-40010) supplemented with 0.1% Tween 20. Each ELISA plate was then allowed to incubate for 1 hour at 23° C. […]

[1] = Homo sapiens, THP-1, inhibition of IL-1β secretion, class column of Table 3
[2] = Homo sapiens, THP-1, inhibition of IL-1β secretion, numeric column of Table 3
[3] = inhibition of IL-1β secretion, class column of Table 3
[4] = inhibition of IL-1β secretion, numeric column of Table 3

**Q.** With `CC(O)c1nn(CC(=O)Nc2ncccn2)c(=O)c2ccc(Br)cc12` (single isomer, unassigned) [Example 101, 2-(6-bromo-4-(1-hydroxyethyl)-1-oxophthalazin-2(1H)-yl)-N-(pyrimidin-2-yl)acetamide] as the compound, how does the IC50 [1] read?
**A.** < 10000 nM

**Q.** And the IC50 [2]?
**A.** 1450 nM

**Q.** Which results are given for `CC(O)c1nn(CC(=O)Nc2ncccn2)c(=O)c2ccc(Br)cc12` (single isomer, unassigned) [Example 102, 2-(6-bromo-4-(1-hydroxyethyl)-1-oxophthalazin-2(1H)-yl)-N-(pyrimidin-2-yl)acetamide]?
**A.** IC50 [3]: < 10000 nM; IC50 [4]: 2440 nM

**Q.** How did the IC50 [1] turn out when `O=C(Cn1nc([C@H]2C[C@H]2F)c2cc(Br)ccc2c1=O)Nc1ncc(F)cn1` (single isomer, unassigned) [Example 165, 2-[6-bromo-4-[2-cis-fluorocyclopropyl]-1-oxophthalazin-2-yl]-N-(5-fluoropyrimidin-2-yl)acetamide] was run?
**A.** < 10000 nM

**Q.** What about the IC50 [4] of the same compound?
**A.** 613 nM

**Q.** Which results are given for `O=C(Cn1nc([C@H]2C[C@H]2F)c2cc(Br)ccc2c1=O)Nc1ncc(F)cn1` (single isomer, unassigned) [Example 166, 2-[6-bromo-4-[2-cis-fluorocyclopropyl]-1-oxophthalazin-2-yl]-N-(5-fluoropyrimidin-2-yl)acetamide]?
**A.** IC50 [3]: < 10000 nM; IC50 [4]: 237 nM

**Q.** How did the IC50 [1] turn out when `CC(C)c1nn(CC(=O)N[C@H]2C[C@@](C)(O)C2)c(=O)c2ccc(Br)cc12` [Example 1, 2-(6-Bromo-4-isopropyl-1-oxophthalazin-2(1H)-yl)-N-(cis-3-hydroxy-3-methylcyclobutyl)acetamide] was run?
**A.** < 10000 nM

**Q.** And the IC50 [2]?
**A.** 30 nM

**Q.** `CC(C)c1nn(CC(=O)N[C@H]2C[C@@](C)(O)C2)c(=O)c2cc(Br)ccc12` [Example 2, 2-(7-Bromo-4-isopropyl-1-oxophthalazin-2(1H)-yl)-N-(cis-3-hydroxy-3-methylcyclobutyl)acetamide] was tested. Which IC50 [1] did it give?
**A.** < 10000 nM

**Q.** What about the IC50 [2] of the same compound?
**A.** 2110 nM

**Q.** For `CCN1CCC[C@@H](NC(=O)Cn2nc(C(C)C)c3cc(Br)ccc3c2=O)C1` [Example 3, (R)-2-(6-Bromo-4-isopropyl-1-oxophthalazin-2(1H)-yl)-N-(1-ethylpiperidin-3-yl)acetamide], which IC50 [1] is on record?
**A.** < 10000 nM

**Q.** What about the IC50 [2] of the same compound?
**A.** 159 nM

**Q.** With `CCN1CCC[C@@H](NC(=O)Cn2nc(C(C)C)c3cc(C)ccc3c2=O)C1` [Example 4] as the compound, how does the IC50 [1] read?
**A.** < 10000 nM

**Q.** And the IC50 [2]?
**A.** 1830 nM

**Q.** `CC(C)c1nn(CC(=O)N[C@@H]2CCCN(C3CC3)C2)c(=O)c2ccc(Br)cc12` [Example 5, (R)(6-Bromo-4-Isopropyl-1-Oxophthalazin-2(1H)-yl)-N-(1-Cyclopropylpiperidin-3-yl)Acetamide] was tested. Which IC50 [1] did it give?
**A.** < 10000 nM

**Q.** What about the IC50 [2] of the same compound?
**A.** 46 nM

**Q.** For `CC(C)c1nn(CC(=O)Nc2ncncc2F)c(=O)c2ccc(Br)cc12` [Example 6, 2-(6-Bromo-4-isopropyl-1-oxophthalazin-2(1H)-yl)-N-(5-fluoropyrimidin-4-yl)acetamide], which IC50 [1] is on record?
**A.** < 10000 nM

**Q.** And the IC50 [2]?
**A.** 121 nM

**Q.** `CC(C)c1nn(CC(=O)N[C@@H]2CCCN(CC(F)(F)F)C2)c(=O)c2ccc(Br)cc12` [Example 7, (R)-2-(6-Bromo-4-isopropyl-1-oxophthalazin-2(1H)-yl)-N-(1-(2,2,2-trifluoroethyl)piperidin-3-yl)acetamide] was tested. Which IC50 [1] did it give?
**A.** < 10000 nM

**Q.** And the IC50 [2]?
**A.** 1030 nM

**Q.** Which IC50 [1] does the source give for `CC(C)c1nn(CC(=O)Nc2ccncc2F)c(=O)c2ccc(Br)cc12` [Example 8, 2-(6-Bromo-4-isopropyl-1-oxophthalazin-2(1H)-yl)-N-(3-fluoropyridin-4-yl)acetamide] here?
**A.** < 10000 nM

**Q.** What about the IC50 [2] of the same compound?
**A.** 235 nM

**Q.** What does the source list for `CC(C)c1nn(CC(=O)Nc2ncncc2F)c(=O)c2ccc(Br)c(F)c12` [Example 9, 2-(6-Bromo-5-fluoro-4-isopropyl-1-oxophthalazin-2(1H)-yl)-N-(5-fluoropyrimidin-4-yl)acetamide]?
**A.** IC50 [1]: < 10000 nM; IC50 [2]: 144 nM

**Q.** How did the IC50 [1] turn out when `CC(C)c1nn(CC(=O)NC2CN(C(=O)OC(C)(C)C)CC(F)(F)C2)c(=O)c2ccc(Br)cc12` (stereo not shown) [Example 10, tert-Butyl-5-[[2-(6-bromo-4-isopropyl-1-oxo-phthalazin-2-yl)acetyl]amino]-3,3-difluoro-piperidine-1-carboxylate] was run?
**A.** < 10000 nM

**Q.** And the IC50 [2]?
**A.** 3050 nM

**Q.** `CC(C)c1nn(CC(=O)NC2CNCC(F)(F)C2)c(=O)c2ccc(Br)cc12` (stereo not shown) [Example 11, 2-(6-bromo-4-isopropyl-1-oxophthalazin-2(lH)-yl)-N-(5,5-difluoropiperidin-3-yl)acetamide HCl salt] was tested. Which IC50 [1] did it give?
**A.** < 10000 nM

**Q.** What about the IC50 [2] of the same compound?
**A.** 3150 nM

**Q.** Which IC50 [1] does the source give for `CCN1CC(NC(=O)Cn2nc(C(C)C)c3cc(Br)ccc3c2=O)CC(F)(F)C1` (stereo not shown) [Example 12] here?
**A.** < 10000 nM

**Q.** And the IC50 [2]?
**A.** 2590 nM

**Q.** What does the source list for `CC(F)(F)c1nn(CC(=O)Nc2ncncc2F)c(=O)c2ccc(Br)cc12` [Example 13, 2-[6-bromo-4-(1,1-difluoroethyl)-1-oxophthalazin-2-yl]-N-(5-fluoropyrimidin-4-yl)acetamide]?
**A.** IC50 [1]: < 10000 nM; IC50 [2]: 2320 nM

**Q.** With `CC(C)c1nn(C(C)C(=O)Nc2ncncc2F)c(=O)c2ccc(Br)cc12` (stereo not shown) [Example 14, 2-(6-bromo-1-oxo-4-propan-2-ylphthalazin-2-yl)-N-(5-fluoropyrimidin-4-yl)propanamide] as the compound, how does the IC50 [1] read?
**A.** < 10000 nM

**Q.** What about the IC50 [2] of the same compound?
**A.** 3660 nM

**Q.** With `CC(C)c1nn(CC(=O)Nc2ncncc2F)c(=O)c2ccc(OC(F)(F)F)cc12` [Example 15, N-(5-fluoropyrimidin-4-yl)-2-[1-oxo-4-propan-2-yl-6-(trifluoromethoxy)phthalazin-2-yl]acetamide] as the compound, how does the IC50 [1] read?
**A.** < 10000 nM

**Q.** And the IC50 [2]?
**A.** 6270 nM

**Q.** For `CC(C)c1nn(CC(=O)Nc2ncncc2F)c(=O)c2ccc(OC(F)F)cc12` [Example 16, 2-[6-(difluoromethoxy)-1-oxo-4-propan-2-ylphthalazin-2-yl]-N-(5-fluoropyrimidin-4-yl)acetamide], which IC50 [1] is on record?
**A.** < 10000 nM

**Q.** What about the IC50 [2] of the same compound?
**A.** 787 nM

**Q.** For `CC(c1nn(CC(=O)Nc2ncncc2F)c(=O)c2ccc(Br)cc12)C(F)(F)F` (stereo not shown) [Example 17, 2-[6-bromo-1-oxo-4-(1,1,1-trifluoropropan-2-yl)phthalazin-2-yl]-N-(5-fluoropyrimidin-4-yl)acetamide], which IC50 [1] is on record?
**A.** < 10000 nM

**Q.** What about the IC50 [2] of the same compound?
**A.** 876 nM

**Q.** What does the source list for `CC(c1ccc2c(=O)n(CC(=O)Nc3ncncc3F)nc(Br)c2c1)C(F)(F)F` (stereo not shown) [Example 18, 2-[4-bromo-1-oxo-6-(1,1,1-trifluoropropan-2-yl)phthalazin-2-yl]-N-(5-fluoropyrimidin-4-yl)acetamide]?
**A.** IC50 [1]: 10000 to 15000 nM; IC50 [2]: 10700 nM

**Q.** Which IC50 [1] does the source give for `CC(C)c1nn(CC(=O)Nc2ncncc2F)c(=O)c2ccc(C3CC3)cc12` [Example 19, 2-(6-cyclopropyl-1-oxo-4-propan-2-ylphthalazin-2-yl)-N-(5-fluoropyrimidin-4-yl)acetamide] here?
**A.** < 10000 nM

**Q.** What about the IC50 [2] of the same compound?
**A.** 334 nM

**Q.** Which IC50 [1] does the source give for `CC(C)c1nn(CC(=O)Nc2ncncc2F)c(=O)c2ccc(I)cc12` [Example 20, N-(5-fluoropyrimidin-4-yl)-2-(6-iodo-1-oxo-4-propan-2-ylphthalazin-2-yl)acetamide] here?
**A.** < 10000 nM

**Q.** What about the IC50 [2] of the same compound?
**A.** 18 nM

**Q.** With `CC(C)c1nn(CC(=O)Nc2ncncc2F)c(=O)c2ccc(C(F)F)cc12` [Example 21, 2-[6-(difluoromethyl)-1-oxo-4-propan-2-ylphthalazin-2-yl]-N-(5-fluoropyrimidin-4-yl)acetamide] as the compound, how does the IC50 [1] read?
**A.** < 10000 nM

**Q.** And the IC50 [2]?
**A.** 1060 nM

**Q.** Which IC50 [1] does the source give for `CC(C)c1nn(CC(=O)Nc2ncncc2F)c(=O)c2ccc(Br)nc12` [Example 22, 2-(2-bromo-5-oxo-8-propan-2-ylpyrido[2,3-d]pyridazin-6-yl)-N-(5-fluoropyrimidin-4-yl)acetamide] here?
**A.** < 10000 nM

**Q.** What about the IC50 [2] of the same compound?
**A.** 398 nM
